# Source: US11465990B2, “Heterocyclic antiestrogens” (SUN PHARMA ADVANCED RESEARCH COMPANY LIMITED, priority 2015, dated 2022)
# Test system: MCF-7 cells
# Assay: MCF-7 cell growth inhibition assay
# Type: cell-based
# Settings: MCF-7 cells plated in presence of estradiol (1 nM), five days incubation, Presto Blue viability; for % inhibition: at 1 μM; for inhibition at 1 µM: Homo sapiens, MCF7, 120 h
# Method: MCF-7 Cell Growth Inhibition Assay
# MCF-7 cells were plated in 96 well plate in the presence of estradiol (1 nM) and incubated overnight. After 24 hours test compound was added at various concentrations and incubated for five days. On the fifth day, cell viability was evaluated using Presto Blue Cell Viability Reagent. Percentage growth inhibition was calculated as follows: 100−[(O.D. of sample)*100/O.D. of vehicle control] wherein O.D. is optical density.
Compound,% inhibition [%],inhibition at 1 µM [%]
3-(3-Methoxy phenyl)-4-methyl-2-{4-[(Z)-3-((R)-3-methyl pyrrolidin-1-yl)propenyl]phenyl}-2H-chromen-6-ol [Compound 28],55.9,
CNC/C=C\c1ccc(C2Oc3ccc(O)cc3C(C)=C2c2cccc(O)c2)cc1 (centres unmarked) [Compound 1],,64.1
CC1=C(c2cccc(O)c2)C(c2ccc(/C=C\CN(C)C)cc2)Oc2ccc(O)cc21 (centres unmarked) [Compound 2],,62.2
CCCCCCCCCCCCNC/C=C\c1ccc(C2Oc3ccc(O)cc3C(C)=C2c2cccc(O)c2)cc1 (centres unmarked) [Compound 3],,68.5
CCCCCCCCCCCCNC/C=C/c1ccc(C2Oc3ccc(O)cc3C(C)=C2c2cccc(O)c2)cc1 (centres unmarked) [Compound 4],,56.2
CC1=C(c2cccc(O)c2)C(c2ccc(/C=C\CNCCN(C)C)cc2)Oc2ccc(O)cc21 (centres unmarked) [Compound 6],,55.5
"CC1=C(c2cccc(O)c2)C(c2ccc(/C=C\CNCCCCCCCCCSCCCC(F)(F)C(F)(F)F)cc2)Oc2ccc(O)cc21 (centres unmarked) [Compound 7, 3-(3-hydroxyphenyl)-4-methyl-2-(4-{(Z)-3-[9-(4,4,5,5,5-pentafluoropentylsulfanyl)nonylamino]propenyl}phenyl)-2H-chromen-6-ol]",,85.3
CC1=C(c2cccc(O)c2)C(c2ccc(/C=C/CNCCCCCCCCCSCCCC(F)(F)C(F)(F)F)cc2)Oc2ccc(O)cc21 (centres unmarked) [Compound 8],,59.1
CC1=C(c2cccc(O)c2)C(c2ccc(/C=C\CN3CC[C@@H](C)C3)cc2)Oc2ccc(O)cc21 (some centres unmarked) [Compound 9],,79.8
CC1=C(c2cccc(O)c2)C(c2ccc(/C=C/CN3CC[C@@H](C)C3)cc2)Oc2ccc(O)cc21 (some centres unmarked) [Compound 10],,52.3
"CC1=C(c2cccc(O)c2)C(c2ccc(/C=C\CN3CCCCC3)cc2)Oc2ccc(O)cc21 (centres unmarked) [Compound 11, 3-(3-hydroxyphenyl)-4-methyl-2-[4-((Z)-3-piperidin-1-ylpropenyl)phenyl]-2H-chromen-6-ol]",,65.1
"CC1=C(c2cccc(O)c2)C(c2ccc(/C=C/CN3CCCCC3)cc2)Oc2ccc(O)cc21 (centres unmarked) [Compound 12, 3-(3-hydroxyphenyl)-4-methyl-2-[4-((E)-3-piperidin-1-ylpropenyl)phenyl]-2H-chromen-6-ol]",,57.6
CC1=C(c2cccc(O)c2)C(c2ccc(/C=C\CN3CCOCC3)cc2)Oc2ccc(O)cc21 (centres unmarked) [Compound 13],,5.5
CC1=C(c2cccc(O)c2)C(c2ccc(/C=C\CN3CCN(C)CC3)cc2)Oc2ccc(O)cc21 (centres unmarked) [Compound 14],,79.1
CC1=C(c2cccc(O)c2)C(c2ccc(/C=C/CN3CCN(C)CC3)cc2)Oc2ccc(O)cc21 (centres unmarked) [Compound 15],,52.2
CC1=C(c2cccc(O)c2)C(c2ccc(/C=C\CN3CCC[C@@H](N)C3)cc2)Oc2ccc(O)cc21 (some centres unmarked) [Compound 16],,56.7
CC1=C(c2cccc(O)c2)C(c2ccc(/C=C\CN3CCN(CCO)CC3)cc2)Oc2ccc(O)cc21 (centres unmarked) [Compound 17],,43.4
"CC1=C(c2cccc(OC(=O)C(C)(C)C)c2)C(c2ccc(/C=C\CN3CC[C@@H](C)C3)cc2)Oc2ccc(OC(=O)C(C)(C)C)cc21 (stereo partly drawn) [Compound 19, 2,2-Dimethylpropionic Acid 3-[3-(2,2-dimethylpropionyloxy)phenyl]-4-methyl-2-{4-[(Z)-3-((R)-3-methylpyrrolidin-1-yl)propenyl]phenyl}-2H-chromen-6-yl ester]",,29.4
"COc1cccc(C2=C(C)c3cc(OC)ccc3OC2c2ccc(/C=C\CN3CC[C@@H](C)C3)cc2)c1 (stereo partly drawn) [Compound 20, (R)-1-((Z)-3-{4-[6-methoxy-3-(3-methoxyphenyl)-4-methyl-2H-chromen-2-yl]phenyl}allyl)-3-methylpyrrolidine]",,15.4
CNCC#Cc1ccc(C2Oc3ccc(O)cc3C(C)=C2c2cccc(O)c2)cc1 (centres unmarked) [Compound 21],,60.1
CCCCCCCCCCCCNCC#Cc1ccc(C2Oc3ccc(O)cc3C(C)=C2c2cccc(O)c2)cc1 (centres unmarked) [Compound 22],,29
CNC/C(C)=C/CCC=C(C)C [Compound 23],,36.8

Compound,% inhibition [%],inhibition at 1 µM [%]
CC1=C(c2cccc(O)c2)C(c2ccc(C#CCN3CC[C@@H](C)C3)cc2)Oc2ccc(O)cc21 (some centres unmarked) [Compound 24],,62.5
"CC1=C(c2cccc(O)c2)C(c2ccc(C#CCN3CCCCC3)cc2)Oc2ccc(O)cc21 (centres unmarked) [Compound 25, 3-(3-hydroxyphenyl)-4-methyl-2-[4-(3-piperidin-1-yl-prop-1-ynyl)phenyl]-2H-chromen-6-ol]",,42.5
CC1=C(c2cccc(O)c2)C(c2ccc(C#CCN3CCN(C)CC3)cc2)Oc2ccc(O)cc21 (centres unmarked) [Compound 26],,55.2
CC1=C(c2cccc(O)c2)C(c2ccc(C#CCCN3CCN(C)CC3)cc2)Oc2ccc(O)cc21 (centres unmarked) [Compound 27],,28.8
CCCNC1CCN(C)C1 (centres unmarked) [Compound 31],,19.9
CCCNC1CCN(C)C1 (centres unmarked) [Compound 32],27.4,
CC1=C(c2cccc(O)c2)C(c2ccc(/C=C/CN3CCSCC3)cc2)Oc2ccc(O)cc21 (centres unmarked) [Compound 33],,22.8
CC1=C(c2cccc(O)c2)C(c2ccc(/C=C\CN3CCC(C)CC3)cc2)Oc2ccc(O)cc21 (centres unmarked) [Compound 34],,35
CCCCCCCCCNC/C=C/c1ccc(C2Oc3ccc(O)cc3C(C)=C2c2cccc(O)c2)cc1 (centres unmarked) [Compound 35],,68.6
CCCCCCCCCNC/C=C\c1ccc(C2Oc3ccc(O)cc3C(C)=C2c2cccc(O)c2)cc1 (centres unmarked) [Compound 37],57.2,
CC1=C(c2cccc(O)c2)C(c2ccc(/C=C\CNCCCCCCCCCF)cc2)Oc2ccc(O)cc21 (centres unmarked) [Compound 38],,49.9
"CC1=C(c2cccc(O)c2)C(c2ccc(/C=C/CNCCCCCCCCCF)cc2)Oc2ccc(O)cc21 (centres unmarked) [Compound 39, 2-{4-[(E)-3-(9-Fluorononylamino)propenyl]phenyl}-3-(3-hydroxyphenyl)-4-methyl-2H-chromen-6-ol]",,89.7
CC1=C(c2cccc(O)c2)C(c2ccc(/C=C\C(C)N3CCCC3)cc2)Oc2ccc(O)cc21 (centres unmarked) [Compound 40],,29.3
CC1=C(c2cccc(O)c2)C(c2ccc(/C=C/CNCCCCCCCCCCF)cc2)Oc2ccc(O)cc21 (centres unmarked) [Compound 41],,77.6
CC1=C(c2cccc(O)c2)C(c2ccc(C#CCNCCCCCCCCCF)cc2)Oc2ccc(O)cc21 (centres unmarked) [Compound 42],,62
CC1=C(c2cccc(O)c2)C(c2ccc(/C=C\CNCCCCCCCCCCF)cc2)Oc2ccc(O)cc21 (centres unmarked) [Compound 43],,47.9
CC1=C(c2cccc(O)c2)C(c2ccc(/C=C/CNCCCCCCCCC(F)F)cc2)Oc2ccc(O)cc21 (centres unmarked) [Compound 44],,67.2
CC1=C(c2cccc(O)c2)C(c2ccc(/C=C/CN(C)CCCCCCCCCF)cc2)Oc2ccc(O)cc21 (centres unmarked) [Compound 45],71.4,
CC1=C(c2cccc(O)c2)C(c2ccc(/C=C\CNCCCCCCCCC(F)F)cc2)Oc2ccc(O)cc21 (centres unmarked) [Compound 46],,88.6
COc1cccc(C2=C(C)c3cc(O)ccc3OC2c2ccc(/C=C/CNCCCCCCCCCF)cc2)c1 (centres unmarked) [Compound 47],,67.4
CC1=C(c2cccc(O)c2)C(c2ccc(/C=C\CN(C)CCCCCCCCCF)cc2)Oc2ccc(O)cc21 (centres unmarked) [Compound 48],,58.9
CC1=C(c2cccc(O)c2)C(c2ccc(/C=C/CNCCCCCCCCF)cc2)Oc2ccc(O)cc21 (centres unmarked) [Compound 49],,67.3
